Measured values published in ChEMBL document CHEMBL5523700, “Discovery and characterization of potent spiro-isoxazole-based cereblon ligands with a novel binding mode” (Eur J Med Chem, 2024).
pKi: −log10 of the molar value.

Tests used:
[1] = test system: MOLP-8; experiment: Cytotoxicity against human MOLP8 cells assessed as cell survival at 30 uM incubated for 48 hrs by Cell Titer-Glo luminescent assay relative to control; format: functional; settings: read-out: Survival
[2] = test system: MM1.S; experiment: Cytotoxicity against human MM1.S cells assessed as cell survival at 30 uM incubated for 48 hrs by Cell Titer-Glo luminescent assay relative to control; format: functional; settings: read-out: Survival
[3] = Cytotoxicity against human PBMC cells assessed as cell survival at 30 uM incubated for 48 hrs by Cell Titer-Glo luminescent assay relative to control; format: toxicity, cell-based; settings: read-out: Survival
[4] = test system: KMS-12-PE; experiment: Cytotoxicity against human KMS-12-PE cells assessed as cell survival at 30 uM incubated for 48 hrs by Cell Titer-Glo luminescent assay relative to control; format: functional; settings: read-out: Survival
[5] = Lipophilicity, logP of compound by HPLC analysis; format: physicochemical
[6] = Stability in human plasma assessed as half-life at 10 uM incubated upto 480 mins by HPLC analysis; format: ADME, cell-free
[7] = target: Protein cereblon (Homo sapiens, UniProt Q96SW2); experiment: Binding affinity to human CRBN TBD assessed as inhibition constant using BODIPY-uracil as substrate by Microscale thermophoresis assay
Protein cereblon, sequence (Q96SW2 whole entry): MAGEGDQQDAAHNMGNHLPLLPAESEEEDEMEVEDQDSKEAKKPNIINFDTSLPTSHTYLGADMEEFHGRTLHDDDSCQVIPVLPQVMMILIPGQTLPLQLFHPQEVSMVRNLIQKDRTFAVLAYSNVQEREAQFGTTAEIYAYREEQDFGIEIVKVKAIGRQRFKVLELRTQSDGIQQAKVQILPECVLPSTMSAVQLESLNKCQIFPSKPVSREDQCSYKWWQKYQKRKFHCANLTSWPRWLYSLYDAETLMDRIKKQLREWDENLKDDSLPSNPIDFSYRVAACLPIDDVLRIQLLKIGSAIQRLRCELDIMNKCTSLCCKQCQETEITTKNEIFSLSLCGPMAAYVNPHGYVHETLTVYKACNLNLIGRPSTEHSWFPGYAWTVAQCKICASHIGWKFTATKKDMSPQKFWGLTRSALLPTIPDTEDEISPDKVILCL

pKi [7]	Compound	viability at 30 µM [1] [%]	viability at 30 µM [2] [%]	viability at 48 h, 30 µM [3] [%]	viability at 30 µM [4] [%]	logP [5]	half-life at 10 µM [6] [h]
	O=C1CCC2(CC(c3ccc(C(=O)O)cc3)=NO2)C(=O)N1 (stereo unspecified)	100	95.6	99.5	97.3		
	O=C1CCC(N2C(=O)c3ccccc3C2=O)C(=O)N1 (stereo unspecified) [THALIDOMIDE]	31.6	11.4	94.2	44.1	0.3	
	O=C1CCC2(CC(C3CCCC3)=NO2)C(=O)N1 (stereo unspecified)	93	62.2	89.9	92	1.28	
	CCCC1=NOC2(CCC(=O)NC2=O)C1 (stereo unspecified)	100	76.7	100	100	0.87	
	O=C1CCC2(CC(c3ccccc3Br)=NO2)C(=O)N1 (stereo unspecified)	100	88.3	74.9	97.8	1.68	
	COc1ccccc1C1=NOC2(CCC(=O)NC2=O)C1 (stereo unspecified)	79.3	94.8	100	86.6	2.22	
	CC(C)(C)C1=NOC2(CCC(=O)NC2=O)C1 (stereo unspecified)	100	75.6	100	100	1.09	
	Nc1cccc2c1C(=O)N(C1CCC(=O)NC1=O)C2=O (stereo unspecified) [POMALIDOMIDE]						3.03
	O=C1CCC2(CC(c3ccc(Cl)cc3Cl)=NO2)C(=O)N1 (stereo unspecified)	100	71.7	100	100	2.68	
	O=C1CCC2(CC(c3ccccc3Cl)=NO2)C(=O)N1 (stereo unspecified)	100	43.3	100	100	1.64	4.97
	CCC(CC)C1=NOC2(CCC(=O)NC2=O)C1 (stereo unspecified)	94.1	89.1	91.2	98.9	1.6	
	O=C1CCC2(CC(c3c(Cl)cccc3Cl)=NO2)C(=O)N1 (stereo unspecified)	94.9	39.5	88.6	99.3	1.96	
3.99	CC1(C)CC(=O)NC(=O)C1						
	O=C1CCC2(CC(c3ccccc3I)=NO2)C(=O)N1 (stereo unspecified)	82.2	69.3	100	100	1.75	
	COc1ccc(C2=NOC3(CCC(=O)NC3=O)C2)c(OC)c1OC (stereo unspecified)	66.3	78.7	82.4	72.2	2.67	
	O=C1CCC2(CC(C3CCCCC3)=NO2)C(=O)N1 (stereo unspecified)	97	100	100	100	1.87	
	O=C1CCC2(CC(c3ccccc3[N+](=O)[O-])=NO2)C(=O)N1 (stereo unspecified)	75.5	81.9	71.5	88.5	1.23	
	O=C1CCC2(CC(c3ccccc3F)=NO2)C(=O)N1 (stereo unspecified)	84.5	76.5	88.6	89.2	1.37	
	O=C1CCC2(CC(c3cccnc3)=NO2)C(=O)N1 (stereo unspecified)	75.5	23.2	83.6	88.9		
